# In patent publication US20160022694A1, “A Method of Improving the Efficiency of Beef Production from Bovine Animals” (INTERVET INTERNATIONAL B.V., priority 2013, published 2016):
# Marks after values point to notes of the source that are not given here.
# How the values were obtained:
# [1] = system: finishing steers; assay: Feedlot growth performance study: component feeding vs continuous feeding of Zilmax; assay type: in vivo, cattle; conditions: for Final body weight: 20 days, LS mean
# Text: A multi-center, randomized complete block design was used. Four study sites enrolled 800 to 1000 head of cattle each. Cattle were randomized to 10 blocks of 80 to 100 head based on body weight, then penned in groups of 16 to 20 head per pen. Finishing steers that were visually estimated to be approximately 58 days from finish were used in the studies. Each site enrolled 800 to 1000 head of cattle. Cattle were randomized to 10 blocks of 80 to 100 head and, within block, to treatment group based on body weight. Study pens consisted of 16 to 20 head per pen. The study was broken into three periods: acclimation, Zilmax® treatment and withdrawal. Between study sites, the number of acclimation days was variable but the Zilmax feeding period was 20 days at all study sites. The withdrawal period ranged from 3 to 5 days across the sites. More than one start time was allowed to accommodate enrollment of the study animals. If blocks were initiated at different times, blocks may have been acclimated for different lengths of time. The minimum length of the acclimation period was 31 days. All animals were permitted ad libitum feed consumption according to standard study site procedure. Feed delivery occurred twice daily. Daily feed issue was recorded on a per pen basis from the start of the acclimation period and until final weights were measured before shipment for harvest. Feed batching and delivery were documented. A component feeding method was tested in the studies by thoroughly mixing the daily zilpaterol dose in the first feeding of the Type C feed prior to delivery to the animal for Groups 2, 3 and 4. […] The daily component feed amount (i.e., the first feeding each day of the Type C feed) was set at approximately 10 lb of feed dry matter (DM) per head to simulate commercial practice for component feeding. Therefore, all study pens were fed approximately 10 lb of DM per head in the first feeding of the day. Control steers were fed the Type C feed that contained no Zilmax. The component feeding treatment groups were fed the Type C feed that contained 60, 75, or 90 mg/head/day. All cattle in the control and three component feeding treatments were fed the non-medicated Type C complete feed (i.e., without Zilmax®) in a second feeding each day. Steers in the 6.8 g/ton Zilmax® treatment group received the Type C complete feed containing this level of Zilmax® in both feedings each day during the 20-day Zilmax® feeding period. Individual animal weights were measured prior to the start of the Acclimation period for use in randomization of animals to treatment groups and pens. The Acclimation period was used to stabilize feed intake and behavioral aspects of the newly sorted pen groups of cattle prior to feeding Zilmax®. Individual weights were measured and unconsumed feed was removed from the feed bunks and weighed on the day of initiation of Zilmax® feeding. After a 20-day Zilmax® feeding period, unconsumed feed was removed from the feed bunks, weighed, and discarded. All animals in the five treatment groups were fed a non-medicated feed (i.e., without Zilmax®) for a minimum 3 day withdrawal period prior to harvest. Unconsumed feed remaining in the feed bunks was removed and weighed on the day of final body weight measurement. Cattle were handled throughout the study using procedures which were typical of commercial practices. Cattle were exposed to ambient weather conditions during the studies. Feed was not restricted prior to weighing or harvest. The primary variables in this study were average daily body weight gain (ADG) and feed efficiency (FE) calculated for the Zilmax® feeding period of the study (Day 0 through end of withdrawal period) and for the entire study (start of the acclimation period to end of withdrawal period). ADG was calculated as a pen average from the ADG of individual animals within the pen using the equation: ADG=(final body weight−Day 0 body weight)/(number of days between the body weight measurements). […]
# [2] = system: finishing steers; assay: Secondary (carcass) variables after Zilmax component or continuous feeding; assay type: in vivo, cattle; conditions: for Marbling Score: 400-699 = choice
# Text: A multi-center, randomized complete block design was used. Four study sites enrolled 800 to 1000 head of cattle each. Cattle were randomized to 10 blocks of 80 to 100 head based on body weight, then penned in groups of 16 to 20 head per pen. Finishing steers that were visually estimated to be approximately 58 days from finish were used in the studies. Each site enrolled 800 to 1000 head of cattle. Cattle were randomized to 10 blocks of 80 to 100 head and, within block, to treatment group based on body weight. Study pens consisted of 16 to 20 head per pen. A component feeding method was tested in the studies by thoroughly mixing the daily zilpaterol dose in the first feeding of the Type C feed prior to delivery to the animal for Groups 2, 3 and 4. […] The daily component feed amount (i.e., the first feeding each day of the Type C feed) was set at approximately 10 lb of feed dry matter (DM) per head to simulate commercial practice for component feeding. Therefore, all study pens were fed approximately 10 lb of DM per head in the first feeding of the day. Control steers were fed the Type C feed that contained no Zilmax. The component feeding treatment groups were fed the Type C feed that contained 60, 75, or 90 mg/head/day. All cattle in the control and three component feeding treatments were fed the non-medicated Type C complete feed (i.e., without Zilmax®) in a second feeding each day. Steers in the 6.8 g/ton Zilmax® treatment group received the Type C complete feed containing this level of Zilmax® in both feedings each day during the 20-day Zilmax® feeding period. DMI was calculated for the two study periods (start of the acclimation period or Day 0 to the end of the withdrawal period). The following carcass data were collected or calculated: marbling score, USDA quality grade or equivalent, hot carcass weight, ribeye area, backfat thickness (preliminary yield grade and adjusted preliminary yield grade), and USDA yield grade or equivalent. Dressing percent was calculated. Variables continuous in nature were subjected to the analysis described for the primary outcome variables. Outcomes evaluated included: initial body weight, final body weight, weight gain (Day 0 to final date), ADG (acclimation period, initial date to final date), ADG (shrunk, Day 0 to final date and initial date to final date), DMI (acclimation, initial date to final date), as fed intake (Zilmax® period), carcass gain (Day 0 to final date), dressing percent, hot carcass weight, marbling score, fat depth, ribeye area, percent KPH and calculated yield grade. The following carcass data were collected or calculated: marbling score, USDA quality grade or equivalent, hot carcass weight, ribeye area, backfat thickness, calculated yield grade, kidney-pelvic-heart fat percentage, and USDA yield grade or equivalent. The Canadian study site CBGA quality and yield grades were converted to USDA equivalents prior to analysis. Dressing percent was calculated.
# [3] = Acclimation to End of Withdrawal (entire study)
# [4] = Entire Study (55 to 82 days), component feeding 60 mg/hd/day
# [5] = Entire Study (55 to 82 days), component feeding 75 mg/hd/day
# [6] = Entire Study (55 to 82 days), component feeding 90 mg/hd/day
# [7] = Entire Study (55 to 82 days), continuous 6.8 g/ton
# [8] = Zilmax and Withdrawal Period, all treated groups
# [9] = Zilmax and Withdrawal Periods (23 to 25 days), component feeding 60 mg/hd/day
# [10] = Zilmax and Withdrawal Periods (23 to 25 days), component feeding 75 mg/hd/day
# [11] = Zilmax and Withdrawal Periods (23 to 25 days), component feeding 90 mg/hd/day
# [12] = Zilmax and Withdrawal Periods (23 to 25 days), continuous 6.8 g/ton
smiles,measurement,setting,value
"CC(C)NC1CCn2c(=O)[nH]c3cccc(c32)C1O (centres unmarked) [Zilmax, 4,5,6,7-tetrahydro-7-hydroxy-6-(isopropylamino) imidazo[4,5,1-jk]-[1]benzazepin-2(1H)-one]","ADG, component feeding groups vs continuous feeding group",[1]; [3],No differences
same,"ADG, treated groups compared to the control group",[1]; [3],significantly higher
same,"FE, component feeding groups vs continuous feeding group",[1]; [3],No differences
same,"FE, treated groups compared to the control group",[1]; [3],significantly lower
same,"DMI, among the treatment groups","[1]; Acclimation to End of Withdrawal (entire study), P>0.51",No differences
same,ADG,[1]; [4],4.14* lb/head/day
same,DMI,[1]; [4],22.71 lb/head/day
same,FE (Feed / Gain),[1]; [4],5.64*
same,ADG,[1]; [5],4.12* lb/head/day
same,DMI,[1]; [5],22.75 lb/head/day
same,FE (Feed / Gain),[1]; [5],5.65*
same,ADG,[1]; [6],4.13* lb/head/day
same,DMI,[1]; [6],22.65 lb/head/day
same,FE (Feed / Gain),[1]; [6],5.62*
same,ADG,[1]; [7],4.19* lb/head/day
same,DMI,[1]; [7],22.93 lb/head/day
same,FE (Feed / Gain),[1]; [7],5.64*
same,"ADG, component feeding groups vs continuous feeding group",[1]; Zilmax and Withdrawal Period,No differences
same,"DMI, component feeding groups compared to the control group",[1]; Zilmax and Withdrawal Period,significantly lower
same,"DMI, continuous feeding group vs control group",[1]; Zilmax and Withdrawal Period,no significant difference
same,"FE, component feeding groups vs continuous feeding group",[1]; Zilmax and Withdrawal Period,No differences
same,"ADG, treated groups compared to the control group",[1]; [8],significantly higher
same,"FE, treated groups compared to the control group",[1]; [8],significantly lower
same,ADG,[1]; [9],4.13*^(c) lb/head/day
same,DMI,[1]; [9],22.57* lb/head/day
same,FE (Feed / Gain),[1]; [9],5.89*
same,ADG,[1]; [10],3.99* lb/head/day
same,DMI,[1]; [10],22.70* lb/head/day
same,FE (Feed / Gain),[1]; [10],5.99*
same,ADG,[1]; [11],3.97* lb/head/day
same,DMI,[1]; [11],22.39* lb/head/day
same,FE (Feed / Gain),[1]; [11],6.10*
same,ADG,[1]; [12],4.23* lb/head/day
same,DMI,[1]; [12],22.87 lb/head/day
same,FE (Feed / Gain),[1]; [12],5.96*
same,Final body weight,[1]; component feeding 60 mg/hd/day,1463 lb/head
same,Final body weight,[1]; component feeding 75 mg/hd/day,1459 lb/head
same,Final body weight,[1]; component feeding 90 mg/hd/day,1461 lb/head
same,Final body weight,[1]; fed continuously 6.8 g/ton (90% DMB),1467 lb/head
same,"Backfat thickness, among the treatment groups",[2]; P>0.19,no significant differences
same,"Kidney-pelvic-heart fat percentage, among the treatment groups",[2]; P>0.19,no significant differences
same,"USDA quality grade, among the treatment groups",[2]; P>0.19,no significant differences
same,"Calculated yield grade, Zilmax treated groups compared to the control group",[2]; all treated groups,significantly lower
same,"Dressing percentage, Zilmax treated groups compared to the control group",[2]; all treated groups,significantly higher
same,"Hot carcass weight, Zilmax treated groups compared to the control group",[2]; all treated groups,significantly higher
same,"Marbling score, Zilmax treated groups compared to the control group",[2]; all treated groups,significantly lower
same,"Rib eye area, Zilmax treated groups compared to the control group",[2]; all treated groups,significantly higher
same,"USDA yield grade score, Zilmax treated groups compared to the control group",[2]; all treated groups,significantly lower
same,"Calculated yield grade, component feeding groups vs continuous feeding group","[2]; bovine, in vivo",no differences
same,"Dressing percentage, component feeding groups vs continuous feeding group","[2]; bovine, in vivo",no differences
same,"Hot carcass weight, component feeding groups vs continuous feeding group","[2]; bovine, in vivo",no differences
same,"Marbling score, component feeding groups vs continuous feeding group","[2]; bovine, in vivo",no differences
same,"Rib eye area, component feeding groups vs continuous feeding group","[2]; bovine, in vivo",no differences
same,"USDA yield grade score, component feeding groups vs continuous feeding group","[2]; bovine, in vivo",no differences
same,Backfat Thickness,[2]; component feeding 60 mg/hd/day,0.49 inches
same,Calculated Yield Grade,[2]; component feeding 60 mg/hd/day,2.81*
same,Dressing % (using final body weight shrunk 4%),[2]; component feeding 60 mg/hd/day,63.89* %
same,Hot Carcass Weight,[2]; component feeding 60 mg/hd/day,904* lb/head
same,Kidney-Pelvic-Heart fat,[2]; component feeding 60 mg/hd/day,2.27%
same,Ribeye Area,[2]; component feeding 60 mg/hd/day,15.14* sq. inches
same,USDA Yield Grade,[2]; component feeding 60 mg/hd/day,2.19*
same,Marbling Score,[2]; component feeding 60 mg/hd/day,453*
same,Backfat Thickness,[2]; component feeding 75 mg/hd/day,0.48 inches
same,Calculated Yield Grade,[2]; component feeding 75 mg/hd/day,2.82*
same,Dressing % (using final body weight shrunk 4%),[2]; component feeding 75 mg/hd/day,64.00* %
same,Hot Carcass Weight,[2]; component feeding 75 mg/hd/day,902* lb/head
same,Kidney-Pelvic-Heart fat,[2]; component feeding 75 mg/hd/day,2.26%
same,Ribeye Area,[2]; component feeding 75 mg/hd/day,15.07* sq. inches
same,USDA Yield Grade,[2]; component feeding 75 mg/hd/day,2.19*
same,Marbling Score,[2]; component feeding 75 mg/hd/day,460*
same,Backfat Thickness,[2]; component feeding 90 mg/hd/day,0.49 inches
same,Calculated Yield Grade,[2]; component feeding 90 mg/hd/day,2.79*
same,Dressing % (using final body weight shrunk 4%),[2]; component feeding 90 mg/hd/day,64.06* %
same,Hot Carcass Weight,[2]; component feeding 90 mg/hd/day,905* lb/head
same,Kidney-Pelvic-Heart fat,[2]; component feeding 90 mg/hd/day,2.26%
same,Ribeye Area,[2]; component feeding 90 mg/hd/day,15.20* sq. inches
same,USDA Yield Grade,[2]; component feeding 90 mg/hd/day,2.18*
same,Marbling Score,[2]; component feeding 90 mg/hd/day,456*
same,Backfat Thickness,[2]; continuous 6.8 g/ton,0.49 inches
same,Calculated Yield Grade,[2]; continuous 6.8 g/ton,2.83*
same,Dressing % (using final body weight shrunk 4%),[2]; continuous 6.8 g/ton,64.08* %
same,Hot Carcass Weight,[2]; continuous 6.8 g/ton,908* lb/head
same,Kidney-Pelvic-Heart fat,[2]; continuous 6.8 g/ton,2.27%
same,Ribeye Area,[2]; continuous 6.8 g/ton,15.14* sq. inches
same,USDA Yield Grade,[2]; continuous 6.8 g/ton,2.19*
same,Marbling Score,[2]; continuous 6.8 g/ton,457*
